US20090004207A1, “Methods and Compositions for Inhibiting Pathological Angiogenesis in the Eye” (priority 2007, published 2009)

Columns and labels:
[1] = tested on: Bovine retinal endothelial cells; assay: Boyden chamber cell migration assay, S1P-stimulated; format: cell-based; conditions: 1 μM, S1P 100 nM
Experimental: Bovine retinal endothelial cells were tested to see if JTE013, a specific S1P2 receptor antagonist, would influence normal endothelial cell functions, such as cell migration stimulated by S1P. […] In contrast, VPC44116, a specific inhibitor of S1P1 receptor blocked normal endothelial cell migration stimulated by S1P in these cells.

[2] = tested on: human COX-2 promoter (phPES2); assay: Human COX-2 promoter (phPES2) luciferase reporter activity in EOMA cells; format: cell-based; conditions: mouse hemangioendothelioma cells (EOMA); 100 nM for 5 hours
Experimental: Cells transfected with phPES2(−1432/+59) luciferase reporter were treated with PMA (100 nM, positive control). Results from one representative experiment is shown (*P<0.01, […], n=4).
EOMA cultures (3×10^5 cells/well) on 6-well plate were grown one day before the transfection. To measure transfection efficiency, cells were co-transfected with pCMV-βgal. For each well, 0.3 μg of the luciferase reporter vector phPES2(−1432/+59), 0.3 μg of the gene of interest (pcDNA3.1-S1p2 or pcDNA3.1-S1p1) and 25 ng of pCMV-βgal mixed with Lipofectin 2000 (Invitrogen) were introduced into the cells as described by the manufacturer. 24 hours after transfection, cells were treated with PMA (100 nm) for 5 hours, if necessary. Cells were harvested and luciferase and β-galactosidase activity were determined with Luciferase assay system (Promega) and Western-light and western-star system (Applied Biosystems) respectively. The amount of plasmid DNA was made constant by adding pcDNA 3.1 and luciferase activity was normalized to μg of protein content.
In addition, it was tested if S1P2 receptor can induce the transcription of the COX-2 gene. For this experiment, the human COX-2 promoter (phPES2) driven reporter activity was measured in transfected endothelial cells. […]

| Structure (SMILES) | endothelial cell migration stimulated by S1P [1] | induction of phPES2 (−1432/+59) promoter activity [2] [fold] |
| --- | --- | --- |
| CCCCCCCCc1cccc(NC(=O)[C@H](N)CCP(=O)(O)O)c1 [VPC44116] | blocked |  |
| CCCCCCCCCCCCCC(=O)O[C@@H]1[C@@H](C)[C@@]2(O)[C@@H](C=C(CO)C[C@]3(O)C(=O)C(C)=C[C@@H]23)[C@@H]2C(C)(C)[C@]12OC(C)=O [PMA] |  | 1.83 |
